{"source": "ChEMBL document CHEMBL6120951", "about": "“Viral Protein Dimerization Quality Control: A Design Strategy for a Potential Viral Inhibitor” (J Med Chem, 2024)", "key": {"Jurkat": {"system": "Jurkat", "assay": "Cytotoxicity against human Jurkat cells assessed as reduction in cell growth incubated for 24 hrs by CellTiter-Glo luminescent cell viability assay", "format": "functional"}, "[1]": {"assay": "Cytotoxicity against African green monkey Vero cells assessed as reduction in cell viability after 72 hrs by MTT assay", "format": "toxicity, cell-based", "conditions": "chlorocebus sabaeus"}, "[2]": {"assay": "Inhibition of SARS-CoV-2 MPro using Dabcyl-KTSAVLQSGFRKME-Edans as substrate preincubated for 15 mins followed by substrate addition measured after 30 mins by FRET assay", "parameters": "species or system Severe acute respiratory syndrome coronavirus 2"}, "MT4": {"system": "MT4", "assay": "Cytotoxicity against human MT4 cells assessed as reduction in cell viability incubated for 72 hrs by cell-titer glo assay", "format": "functional"}, "[3]": {"system": "Human immunodeficiency virus 1", "assay": "Antiviral activity against HIV-1 3B infected in human MT4 cells assessed as reduction in viral replication", "format": "functional, organism-based", "conditions": "Human immunodeficiency virus 1, 3B"}, "SARS-CoV-2": {"system": "SARS-CoV-2", "assay": "Antiviral activity against SARS-CoV-2 infected in African green monkey Vero cells assessed as reduction in viral replication", "format": "functional, organism-based", "conditions": "Severe acute respiratory syndrome coronavirus 2, Vero"}}, "data": [{"smiles": "Cc1[nH]c2ccccc2c1CC(=O)N[C@@H](Cc1ccccc1)C(=O)N(C)c1ccccc1", "values": [{"measurement": "CC50", "setting": "Jurkat", "value": "> 47", "unit": "µM"}]}, {"smiles": "O=C(O)c1cc(-c2ccc(-c3ccccc3)cc2)nc2ccccc12", "values": [{"measurement": "CC50 at 72 h", "setting": "[1]", "value": "> 50", "unit": "µM"}, {"measurement": "IC50", "setting": "[2]", "value": 0.48, "unit": "µM"}]}, {"smiles": "CC(C)Cc1sc(-c2nccs2)nc1C(=O)NCc1ccc(F)cc1", "values": [{"measurement": "CC50", "setting": "MT4", "value": 50.4, "unit": "µM"}]}, {"smiles": "N#Cc1ccc(Nc2nc(-c3cccnc3)nc3ccccc23)cc1", "values": [{"measurement": "CC50", "setting": "Jurkat", "value": "> 10", "unit": "µM"}, {"measurement": "EC50", "setting": "[3]", "value": 4, "unit": "µM"}]}, {"smiles": "CC(=O)Nc1ccc(-c2cc(C)c(=O)n(Cc3ccc(Cl)cc3)n2)cc1", "values": [{"measurement": "CC50", "setting": "MT4", "value": "> 100", "unit": "µM"}]}, {"smiles": "O=C(CNC(=O)c1ccc(F)cc1)Nc1ccc(Cl)nc1Cl", "values": [{"measurement": "CC50", "setting": "MT4", "value": 144, "unit": "µM"}]}, {"smiles": "O=C(Nc1cc(F)c(F)c(F)c1)c1ccc(F)c(S(=O)(=O)N2CCC(O)CC2)c1", "values": [{"measurement": "CC50", "setting": "MT4", "value": 14.5, "unit": "µM"}]}, {"smiles": "CC(C)OCCCNC(=O)c1csc(Nc2cc(F)c(Cl)c(F)c2)n1", "values": [{"measurement": "EC50", "setting": "SARS-CoV-2", "value": 0.11, "unit": "µM"}, {"measurement": "CC50 at 72 h", "setting": "[1]", "value": "> 100", "unit": "µM"}]}, {"smiles": "CC(C)(C#Cc1ccc(-c2ccc(Cl)c3c(NS(C)(=O)=O)nn(CC(F)(F)F)c23)c([C@H](Cc2cc(F)cc(F)c2)NC(=O)Cn2nc(C(F)(F)F)c3c2C(F)(F)[C@@H]2C[C@H]32)n1)S(C)(=O)=O", "values": [{"measurement": "EC50", "setting": "[3]", "value": 0.000105, "unit": "µM"}]}, {"smiles": "N#Cc1ccc(C(=O)Nc2sc3c(c2C(=O)Nc2ccccc2O)CCCCC3)cc1", "values": [{"measurement": "EC50", "setting": "SARS-CoV-2", "value": 0.38, "unit": "µM"}, {"measurement": "CC50 at 72 h", "setting": "[1]", "value": "> 250", "unit": "µM"}]}, {"smiles": "O=C(Nc1cccc(Cl)c1)C1C2CCCCC21", "note": "(configuration not stated)", "values": [{"measurement": "CC50", "setting": "MT4", "value": "> 100", "unit": "µM"}]}, {"smiles": "CCN1C(=O)C(c2cc(O)cc(-c3cccnc3)c2)C(=O)N(c2ccccc2)c2cc(C(F)(F)F)ccc21", "note": "(configuration not stated)", "values": [{"measurement": "EC50", "setting": "[3]", "value": 0.48, "unit": "µM"}]}, {"smiles": "O=C1NC(c2ccc(O)cc2)C2C(c3ccccc3)=NNC12", "note": "(configuration not stated)", "values": [{"measurement": "CC50", "setting": "Jurkat", "value": "> 43", "unit": "µM"}, {"measurement": "EC50", "setting": "[3]", "value": 1.8, "unit": "µM"}]}, {"smiles": "CC1=C(C(C2=C(C)c3ccccc3C2=O)c2ccc(C)cc2)C(=O)CC(c2ccccc2)C1", "note": "(configuration not stated)", "values": [{"measurement": "EC50", "setting": "SARS-CoV-2", "value": 1.82, "unit": "µM"}]}, {"smiles": "CCc1cc(-c2ccc(C(F)(F)F)o2)n(-c2ccc3c(c2)nc(-c2ccccc2O)n3Cc2ccc(=O)[nH]c2)n1", "values": [{"measurement": "EC50", "setting": "[3]", "value": 0.11, "unit": "µM"}]}, {"smiles": "O=C(NC1CCNCC1)c1n[nH]cc1NC(=O)c1c(Cl)cccc1Cl", "note": "[AT-7519]", "values": [{"measurement": "EC50", "setting": "SARS-CoV-2", "value": 25, "unit": "µM"}]}, {"smiles": "CCOc1cc2ncc(C#N)c(Nc3ccc(F)c(Cl)c3)c2cc1NC(=O)/C=C/CN(C)C", "note": "[PELITINIB]", "values": [{"measurement": "EC50", "setting": "SARS-CoV-2", "value": 1.25, "unit": "µM"}]}]}
